These are literature values, as cited in US6783772B1, “Pharmaceutical preparations containing alendronate sodium” (priority 2003, dated 2004).

Data set [1] deals with bone resorption. The settings on record: postmenopausal women; 5, 20 and 40 mg daily oral for six weeks.
The subject of data set [2] is bone resorption. Conditions: 40 mg once daily for six months.

Consider `NCCCC(O)(P(=O)([O-])O)P(=O)(O)O.O.O.O.[Na+]` [Alendronate sodium, (4-amino-1-hydroxybutylidene) bisphosphonic acid monosodium salt trihydrate], for which, in data set [1], the “biochemical changes (urinary calcium, urinary markers of bone collagen degradation)” value is reported as “dose-dependent inhibition of bone resorption”. For the same molecule, the “serum alkaline phosphotase and urinary markers of bone collagen degradation” value in data set [2] was “highly significant decreases”. Also, the serum calcium phosphate result in data set [2] (clinical trials) is on record as “generally mild, transient, decreases”.
